“Also recorded” adds a separate entry of the source.
What was measured:
Type in all cases: cell-based
Primary human T cells [1] = test: T cell expansion with 2-DG introduced at days 0, 3, 5, 7 or at every feed
Method: Stimulation of T cells with DYNABEADS® Human T-Expander CD3/CD28 at a ratio of 3 beads per T cell and cultured in serum-free, animal origin free medium and culturing the cells with 2-DG. Followed by feeding the cells with 2-DG at various time points (day 3, day 5, day 7, and every time cells were fed).
Treatment with supplement was started on day 0, 3, 5, 7 and maintained with subsequent feedings. T cells were cultured for 12 days in serum-free T cell medium and in X-VIVO™ 15 medium supplemented with 5% human AB serum.
2-DG was cultured with the cells on day 0, 3, 5, 7 and maintained with subsequent feedings. T cells were cultured for 12 days in serum-free T cell medium and in medium with 5% Human AB Serum.
T cell activation and expansion: T cells (seeding density 1×10^6 vc/mL) were activated with DYNABEADS® Human T-Expander CD3/CD28 (Thermo Fisher Scientific, Cat. No. 11141D) at a ratio of 3 beads per T cell and cultured in serum-free medium, animal origin free medium. T cells were counted on days 5, 7, 10, and 12 on a Vi-CELL XR analyzer (Beckman Coulter, Indianapolis IN) and fed with or without 2-DG (0.25 mM, 0.5 mM, 1 mM, 2 mM, and 4 mM) and 5% human AB serum to a density of 5×10^5 vc/mL on days 3, 5, and 7 and 1×10^6 vc/mL on day 10.

Primary human T cells [2] = test: CD8+/CD4+ phenotype with 2-DG at different time points and every feed; details: for Fold Increase compared to Baseline: Day 10 vs Day 0 ratio
Method: FIG. 45 represents the data shown in Table 39 which highlights the fold increase in CD8+ to CD4+ ratio of T cells cultured with 2-DG at different time points and every time the cells were fed.
Phenotype: Primary human T cells were expanded for 10 days with and without 2-DG and 5% human AB serum. DYNABEADS® were removed from 2×10^6 cells by magnetic separation. Surface staining was performed with antibodies against CD3 (Invitrogen, Cat. No. CD0329), CD4 (Molecular Probes, Cat. No. A15858), CD8 (Invitrogen, Cat. No. MHCD0828). Flow cytometric analysis was performed on a Gallios flow cytometer and Kaluza software (Beckman Coulter, Indianapolis IN).

Primary human T cells [3] = test: Cytokine production upon re-stimulation (35-Plex Luminex) with 2-DG; details: expanded 12 days, multiplexed cytokine assay
Text: Cytokine Profiles: Primary human T cells from normal donors were negatively isolated from PBMCs with the DYNABEADS® UNTOUCHED™ Human T Cells kit (Thermo Fisher Scientific, Cat. No. 11344D). T cells (seeding density 1×10^6 vc/mL) were activated with DYNABEADS® Human T-Expander CD3/CD28 (Thermo Fisher Scientific, Cat. No. 11141D) at a ratio of 3 beads per T cell and cultured in serum-free and animal origin free medium or control medium X-VIVO™ 15 (Lonza, Cat. No. BE02-054Q) supplemented with 5% human AB serum. T cells were counted on days 5, 7, 10, and 12 on a Vi-CELL XR analyzer (Beckman Coulter, Indianapolis IN) and fed to a density of 5×10^5 vc/mL on days 3, 5, and 7 and to a density of 1×10^6 vc/mL on day 10. DYNABEADS® were magnetically removed from cultures on day 10 and cells were spun to remove conditioned medium and rested overnight in fresh medium. […]
T cells were expanded for 12 days and re-stimulated with DYNABEADS® Human T-Expander CD3/CD28. Cytokine production upon re-stimulation was assessed with Invitrogen Cytokine Human Magnetic 35-Plex Panel for LUMINEX™. […]
T cells were expanded for 12 days and re-stimulated with DYNABEADS® Human T-Expander CD3/CD28. Cytokine production upon re-stimulation was assessed with Invitrogen Cytokine Human Magnetic 35-Plex Panel for LUMINEX™.

[4] = 0.25 mM 2-DG at Day 0, Day 10 of culture
[5] = 0.25 mM 2-DG at Day 0, after 10 days of culture
[6] = 0.25 mM 2-DG at Day 3, Day 10 of culture
[7] = 0.25 mM 2-DG at Day 3, after 10 days of culture
[8] = 0.25 mM 2-DG at Day 5, Day 10 of culture
[9] = 0.25 mM 2-DG at Day 5, after 10 days of culture
[10] = 0.25 mM 2-DG at Day 7, Day 10 of culture
[11] = 0.25 mM 2-DG at Day 7, after 10 days of culture
[12] = 0.25 mM 2-DG at Every Feed, Day 10 of culture
[13] = 0.25 mM 2-DG at Every Feed, after 10 days of culture

For O=CC[C@@H](O)[C@H](O)[C@H](O)CO [2-DG, 2-Deoxy-D-Glucose], the “Cultured T Cell Population Doublings” value (Primary human T cells [1]; 0.25 mM 2-DG at Day 0, culture day 0) was 0, the “Cultured T Cell Population Doublings” value (Primary human T cells [1]; 0.25 mM 2-DG at Day 0, culture day 5) was 1.71 and the “Cultured T Cell Population Doublings” value (Primary human T cells [1]; 0.25 mM 2-DG at Day 0, culture day 7) was 3.69. For the same compound, the “Cultured T Cell Population Doublings” value (Primary human T cells [1]; 0.25 mM 2-DG at Day 0, culture day 10) was 6.53, the “Cultured T Cell Population Doublings” value (Primary human T cells [1]; 0.25 mM 2-DG at Day 0, culture day 12) was 7.47 and the “Cultured T Cell Population Doublings” value (Primary human T cells [1]; 0.25 mM 2-DG at Day 0, day 5) was 1.71. The “Cultured T Cell Population Doublings” value (Primary human T cells [1]; 0.25 mM 2-DG at Day 0, day 7) was 3.69, the “Cultured T Cell Population Doublings” value (Primary human T cells [1]; 0.25 mM 2-DG at Day 0, day 10) was 6.53 and the “Cultured T Cell Population Doublings” value (Primary human T cells [1]; 0.25 mM 2-DG at Day 0, day 12) was 7.47. The “Cultured T Cell Population Doublings” value (Primary human T cells [1]; 0.25 mM 2-DG at Day 3, culture day 0) was 0, the “Cultured T Cell Population Doublings” value (Primary human T cells [1]; 0.25 mM 2-DG at Day 3, culture day 5) was 1.90 and the “Cultured T Cell Population Doublings” value (Primary human T cells [1]; 0.25 mM 2-DG at Day 3, culture day 7) was 3.36. For the same compound, the “Cultured T Cell Population Doublings” value (Primary human T cells [1]; 0.25 mM 2-DG at Day 3, culture day 10) was 5.80, the “Cultured T Cell Population Doublings” value (Primary human T cells [1]; 0.25 mM 2-DG at Day 3, culture day 12) was 6.34 and the “Cultured T Cell Population Doublings” value (Primary human T cells [1]; 0.25 mM 2-DG at Day 3, day 5) was 1.90. For the same compound, the “Cultured T Cell Population Doublings” value (Primary human T cells [1]; 0.25 mM 2-DG at Day 3, day 7) was 3.36, the “Cultured T Cell Population Doublings” value (Primary human T cells [1]; 0.25 mM 2-DG at Day 3, day 10) was 5.80 and the “Cultured T Cell Population Doublings” value (Primary human T cells [1]; 0.25 mM 2-DG at Day 3, day 12) was 6.34. The “Cultured T Cell Population Doublings” value (Primary human T cells [1]; 0.25 mM 2-DG at Day 5, culture day 0) was 0, the “Cultured T Cell Population Doublings” value (Primary human T cells [1]; 0.25 mM 2-DG at Day 5, culture day 5) was 1.75 and the “Cultured T Cell Population Doublings” value (Primary human T cells [1]; 0.25 mM 2-DG at Day 5, culture day 7) was 3.50. The “Cultured T Cell Population Doublings” value (Primary human T cells [1]; 0.25 mM 2-DG at Day 5, culture day 10) was 5.82, the “Cultured T Cell Population Doublings” value (Primary human T cells [1]; 0.25 mM 2-DG at Day 5, culture day 12) was 6.59 and the “Cultured T Cell Population Doublings” value (Primary human T cells [1]; 0.25 mM 2-DG at Day 5, day 5) was 1.75. For the same compound, the “Cultured T Cell Population Doublings” value (Primary human T cells [1]; 0.25 mM 2-DG at Day 5, day 7) was 3.50, the “Cultured T Cell Population Doublings” value (Primary human T cells [1]; 0.25 mM 2-DG at Day 5, day 10) was 5.82 and the “Cultured T Cell Population Doublings” value (Primary human T cells [1]; 0.25 mM 2-DG at Day 5, day 12) was 6.59. The “Cultured T Cell Population Doublings” value (Primary human T cells [1]; 0.25 mM 2-DG at Day 7, culture day 0) was 0, the “Cultured T Cell Population Doublings” value (Primary human T cells [1]; 0.25 mM 2-DG at Day 7, culture day 5) was 1.70 and the “Cultured T Cell Population Doublings” value (Primary human T cells [1]; 0.25 mM 2-DG at Day 7, culture day 7) was 3.48. The “Cultured T Cell Population Doublings” value (Primary human T cells [1]; 0.25 mM 2-DG at Day 7, culture day 10) was 5.83, the “Cultured T Cell Population Doublings” value (Primary human T cells [1]; 0.25 mM 2-DG at Day 7, culture day 12) was 6.44 and the “Cultured T Cell Population Doublings” value (Primary human T cells [1]; 0.25 mM 2-DG at Day 7, day 5) was 1.70. For the same compound, the “Cultured T Cell Population Doublings” value (Primary human T cells [1]; 0.25 mM 2-DG at Day 7, day 7) was 3.48, the “Cultured T Cell Population Doublings” value (Primary human T cells [1]; 0.25 mM 2-DG at Day 7, day 10) was 5.83 and the “Cultured T Cell Population Doublings” value (Primary human T cells [1]; 0.25 mM 2-DG at Day 7, day 12) was 6.44. For the same compound, the “population doublings” value (Primary human T cells [1]; 0.25 mM 2-DG at day 0, 3, 5, 7 and every feed) was 6 to 7 population doublings, the “Cultured T Cell Population Doublings” value (Primary human T cells [1]; 0.25 mM 2-DG at every feed, culture day 0) was 0 and the “Cultured T Cell Population Doublings” value (Primary human T cells [1]; 0.25 mM 2-DG at every feed, culture day 5) was 1.61. For the same compound, the “Cultured T Cell Population Doublings” value (Primary human T cells [1]; 0.25 mM 2-DG at every feed, culture day 7) was 3.80, the “Cultured T Cell Population Doublings” value (Primary human T cells [1]; 0.25 mM 2-DG at every feed, culture day 10) was 6.03 and the “Cultured T Cell Population Doublings” value (Primary human T cells [1]; 0.25 mM 2-DG at every feed, culture day 12) was 6.82. The “Cultured T Cell Population Doublings” value (Primary human T cells [1]; 0.25 mM 2-DG at every feed, day 5) was 1.61, the “Cultured T Cell Population Doublings” value (Primary human T cells [1]; 0.25 mM 2-DG at every feed, day 7) was 3.80 and the “Cultured T Cell Population Doublings” value (Primary human T cells [1]; 0.25 mM 2-DG at every feed, day 10) was 6.03. For the same compound, the “Cultured T Cell Population Doublings” value (Primary human T cells [1]; 0.25 mM 2-DG at every feed, day 12) was 6.82, the “% CD4+” value (Primary human T cells [2]; [4]) was 74.78% and the “% CD8+” value (Primary human T cells [2]; [4]) was 22.88%. The “% Ratios (CD8+/CD4+)” value (Primary human T cells [2]; [4]) was 0.31, the “Fold Increase compared to Baseline” value (Primary human T cells [2]; 0.25 mM 2-DG at Day 0) was 1.38 and the “% CD4+” value (Primary human T cells [2]; [5]) was 74.78%. The “% CD8+” value (Primary human T cells [2]; [5]) was 22.88%, the “% Ratios (CD8+/CD4+)” value (Primary human T cells [2]; [5]) was 0.31 and the “% CD4+” value (Primary human T cells [2]; [6]) was 70.62%. For the same compound, the “% CD8+” value (Primary human T cells [2]; [6]) was 25.76%, the “% Ratios (CD8+/CD4+)” value (Primary human T cells [2]; [6]) was 0.36 and the “Fold Increase compared to Baseline” value (Primary human T cells [2]; 0.25 mM 2-DG at Day 3) was 1.64. For the same compound, the “% CD4+” value (Primary human T cells [2]; [7]) was 70.62%, the “% CD8+” value (Primary human T cells [2]; [7]) was 25.76% and the “% Ratios (CD8+/CD4+)” value (Primary human T cells [2]; [7]) was 0.36. For the same compound, the “% CD4+” value (Primary human T cells [2]; [8]) was 76.18%, the “% CD8+” value (Primary human T cells [2]; [8]) was 21.26% and the “% Ratios (CD8+/CD4+)” value (Primary human T cells [2]; [8]) was 0.28. For the same compound, the “Fold Increase compared to Baseline” value (Primary human T cells [2]; 0.25 mM 2-DG at Day 5) was 1.26, the “% CD4+” value (Primary human T cells [2]; [9]) was 76.18% and the “% CD8+” value (Primary human T cells [2]; [9]) was 21.26%. The “% Ratios (CD8+/CD4+)” value (Primary human T cells [2]; [9]) was 0.28, the “% CD4+” value (Primary human T cells [2]; [10]) was 73.28% and the “% CD8+” value (Primary human T cells [2]; [10]) was 23.91%. The “% Ratios (CD8+/CD4+)” value (Primary human T cells [2]; [10]) was 0.33, the “Fold Increase compared to Baseline” value (Primary human T cells [2]; 0.25 mM 2-DG at Day 7) was 1.47 and the “% CD4+” value (Primary human T cells [2]; [11]) was 73.28%. The “% CD8+” value (Primary human T cells [2]; [11]) was 23.91%, the “% Ratios (CD8+/CD4+)” value (Primary human T cells [2]; [11]) was 0.33 and the “% CD4+” value (Primary human T cells [2]; [12]) was 76.76%. The “% CD8+” value (Primary human T cells [2]; [12]) was 20.35%, the “% Ratios (CD8+/CD4+)” value (Primary human T cells [2]; [12]) was 0.27 and the “Fold Increase compared to Baseline” value (Primary human T cells [2]; 0.25 mM 2-DG at Every Feed) was 1.19. The “% CD4+” value (Primary human T cells [2]; [13]) was 76.76%, the “% CD8+” value (Primary human T cells [2]; [13]) was 20.35% and the “% Ratios (CD8+/CD4+)” value (Primary human T cells [2]; [13]) was 0.27. For the same compound, the “Fold Increase in CD8+ to CD4+ ratio” value (Primary human T cells [2]; 0.25 mM 2-DG every time cells were fed) was 3 fold, the “Fold Increase in CD8+ to CD4+ ratio” value (Primary human T cells [2]; 0.25 mM 2-DG on day 7 only) was 3 fold and the “cytokine production / function of the cells upon re-stimulation” value (Primary human T cells [3]) was “no change in cytokine production; also recorded: does not alter the function of the cells”.
